From patent US20230139922A1, “BACITRACIN-ALGINATE OLIGOMER CONJUGATES” (AlgiPharma AS, priority 2016, published 2023)
≈ marks a conversion by molar mass, not a printed value. Like-named read-outs stand apart in the source and are kept apart here. Where a SMILES comes first, the peptide text is derived from it. Bridges are numbered along the chain shown (N, C = ends). [ ]: non-standard residue; d: D form. The star is where a group is joined. Ileψ(thiazoline)Cys = CC[C@H](C)[C@H](N)C1=N[C@H](C(=O)*)CS1; dOrn = NCCC[C@@H](N)C(=O)O

Legend:
Assay type in all cases: cell-based
V33 = test: MIC, broth microdilution (CLSI 2012), isolate V33; conditions: Batch 1; MH broth, 16-20 hours
[1] = test system: Staphylococcus aureus (Gram positive); test: Antimicrobial activity (MIC) against Gram positive species; conditions: summary in words
Protocol: (§1) The strains used for susceptibility testing include both culture collection strains and clinical isolates are recited below. Their known relevant genotypes and origin have been described by Khan et al. supra.
(§2) The MICs of alginate oligomers, bacitracin and alginate oligomer conjugates thereof were determined for isolates V2, V3, VS, V19, E68 and E75 using the broth microdilution method in accordance with standard guidelines (CLSI 2012). Test organisms were suspended in Mueller Hinton cation adjusted (MH) broth (100 μL, 1-5×10^4 CFU/mL) and incubated in 96-well microtitre plates in serial two-fold dilutions of the test compounds. The MIC was defined as the lowest concentration of test compound that produced no visible growth after 16-20 hours.

Acinetobacter baumannii = test system: Acinetobacter baumannii
Protocol: as §1, §2

[2] = test system: Pseudomonas aeruginosa (301), MDR-PSA isolate
Protocol: as §1, §2

Klebsiella pneumoniae = test system: Klebsiella pneumoniae
Protocol: as §1, §2

Escherichia coli = test system: Escherichia coli
Protocol: as §1, §2

[3] = test system: Gram negative species tested (Pseudomonas aeruginosa, Klebsiella pneumonia, Escherichia coli and Acinetobacter baumannii); test: Antimicrobial activity (MIC) against Gram negative species; conditions: summary in words
Protocol: as §1, §2

In the case of `CC[C@H](C)[C@H](N)C1=N[C@H](C(=O)N[C@@H](CC(C)C)C(=O)N[C@H](CCC(=O)O)C(=O)N[C@H](C(=O)N[C@H]2CCCCNC(=O)[C@H](CC(N)=O)NC(=O)[C@@H](CC(=O)O)NC(=O)[C@H](Cc3cnc[nH]3)NC(=O)[C@@H](Cc3ccccc3)NC(=O)[C@H]([C@@H](C)CC)NC(=O)[C@@H](CCCN)NC2=O)[C@@H](C)CC)CS1` [Bacitracin, bacitracin] ({Ileψ(thiazoline)Cys}-L[dE]IK[dOrn]I[dF]H[dD]N; lactam 4-C), the “MIC V33” value (V33) is reported as greater than 128 µg/mL, the “antimicrobial activity against Staphylococcus aureus (Gram positive)” value [1] is reported as “high antimicrobial activity” and the “MIC V19” value (Acinetobacter baumannii) is reported as 640 µg/mL (≈ 450 µM). The “MIC V19” value (Acinetobacter baumannii; Batch 1, MH broth, 16-20 hours) was greater than 128 µg/mL, the “MIC V2” value ([2]; 301), MDR-PSA isolate) was greater than 8192 µg/mL and the “MIC V2” value ([2]; Batch 1, MH broth, 16-20 hours) was greater than 128 µg/mL. The “MIC V3” value (Klebsiella pneumoniae) was greater than 8192 µg/mL, the “MIC V3” value (Klebsiella pneumoniae; Batch 1, MH broth, 16-20 hours) was greater than 128 µg/mL and the “MIC V5” value (Escherichia coli) was 640 µg/mL (≈ 450 µM). For the same molecule, the “MIC V5” value (Escherichia coli; Batch 1, MH broth, 16-20 hours) was greater than 128 µg/mL and the “antimicrobial activity against the Gram negative species tested” value [3] was “but not the Gram negative species tested”.
